According to patent publication US8471005B2 (Cephalon, Inc., priority 2008, dated 2013):
Like-named read-outs stand apart in the source and are kept apart here.

Tests used:
[1] = target: T1, ALK (Homo sapiens, UniProt Q9UM73); test: ALK Kinase Assay (ELISA/TRF, PLC-γ substrate); assay type: biochemical; details: read-out: ALK Potency
T1 construct: host or cells: baculovirus expression system
How it was run: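 Wells were coated with 10 μg/mL phospholipase C-γ substrate in TBS, and the reaction was started by adding 30 ng/ml ALK enzyme and run at 37° C for 15 minutes. Phosphorylated product was detected with Eu-N1-labeled PT66 antibody, and IC50 values came from sigmoidal variable-slope fits of percent inhibition against log concentration.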

[2] = target: T2, JAK2 (Homo sapiens, UniProt O60674); test: Recombinant Human JAK2 Kinase Assay (TRF); assay type: biochemical; details: read-out: JAK2 Potency
T2 construct: host or cells: baculovirus expression system
How it was run: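 Baculovirus-expressed JAK2 (15 ng/ml) phosphorylated a biotinylated 15-mer peptide captured on Neutravidin, in 20 mM HEPES pH 7.2, 0.2 μM ATP, 1 mM MnCl2, 0.1% BSA, 2.5% DMSO final, 20 min at room temperature. Phosphoproduct detected by time-resolved fluorescence with Eu-N1-labelled PY100 antibody.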

[3] = ALK kinase inhibition, 1 μM ATP
[4] = JAK2 kinase inhibition, 0.2 μM ATP

T1 sequence (Q9UM73 19-1620): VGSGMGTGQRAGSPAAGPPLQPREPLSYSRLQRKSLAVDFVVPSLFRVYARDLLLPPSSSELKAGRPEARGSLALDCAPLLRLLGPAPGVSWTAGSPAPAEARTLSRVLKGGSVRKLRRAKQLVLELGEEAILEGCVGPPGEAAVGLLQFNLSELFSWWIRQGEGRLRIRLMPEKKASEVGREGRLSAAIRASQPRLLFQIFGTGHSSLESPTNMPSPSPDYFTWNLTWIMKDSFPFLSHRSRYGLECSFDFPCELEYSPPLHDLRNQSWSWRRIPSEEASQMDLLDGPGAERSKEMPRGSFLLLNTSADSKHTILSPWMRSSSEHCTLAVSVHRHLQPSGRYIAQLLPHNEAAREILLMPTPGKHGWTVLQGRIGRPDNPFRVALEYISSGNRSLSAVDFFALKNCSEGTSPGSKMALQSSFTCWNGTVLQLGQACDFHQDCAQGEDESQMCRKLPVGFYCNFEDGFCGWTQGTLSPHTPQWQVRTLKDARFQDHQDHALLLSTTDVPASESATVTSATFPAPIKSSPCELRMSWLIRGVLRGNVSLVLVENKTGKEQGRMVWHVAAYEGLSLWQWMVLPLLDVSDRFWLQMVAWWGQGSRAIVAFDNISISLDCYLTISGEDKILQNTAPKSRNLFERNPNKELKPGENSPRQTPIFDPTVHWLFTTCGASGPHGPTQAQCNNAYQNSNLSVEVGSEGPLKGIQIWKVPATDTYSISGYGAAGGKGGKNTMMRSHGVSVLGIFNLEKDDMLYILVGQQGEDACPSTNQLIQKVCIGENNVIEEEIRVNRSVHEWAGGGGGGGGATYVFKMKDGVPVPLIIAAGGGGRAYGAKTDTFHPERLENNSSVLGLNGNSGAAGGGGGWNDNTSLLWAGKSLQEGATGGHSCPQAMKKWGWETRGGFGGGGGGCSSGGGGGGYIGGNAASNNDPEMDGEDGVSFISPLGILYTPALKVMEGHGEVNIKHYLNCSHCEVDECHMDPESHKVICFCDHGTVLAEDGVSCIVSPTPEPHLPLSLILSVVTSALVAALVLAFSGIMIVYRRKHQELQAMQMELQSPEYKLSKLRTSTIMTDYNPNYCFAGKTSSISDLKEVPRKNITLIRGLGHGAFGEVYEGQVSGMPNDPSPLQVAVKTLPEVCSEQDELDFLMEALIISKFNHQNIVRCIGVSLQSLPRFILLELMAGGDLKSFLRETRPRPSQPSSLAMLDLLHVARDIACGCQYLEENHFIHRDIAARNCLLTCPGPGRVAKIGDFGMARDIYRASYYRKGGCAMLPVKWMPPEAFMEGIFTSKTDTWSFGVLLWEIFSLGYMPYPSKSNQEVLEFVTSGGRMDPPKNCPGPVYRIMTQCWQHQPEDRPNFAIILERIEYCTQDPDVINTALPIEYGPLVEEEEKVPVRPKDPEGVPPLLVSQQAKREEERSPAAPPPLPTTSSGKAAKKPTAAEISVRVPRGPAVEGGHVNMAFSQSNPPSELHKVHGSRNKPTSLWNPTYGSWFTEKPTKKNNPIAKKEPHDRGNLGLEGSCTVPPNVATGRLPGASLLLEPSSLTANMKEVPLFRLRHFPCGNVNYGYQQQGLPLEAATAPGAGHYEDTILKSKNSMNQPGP
T2 sequence (O60674 whole entry): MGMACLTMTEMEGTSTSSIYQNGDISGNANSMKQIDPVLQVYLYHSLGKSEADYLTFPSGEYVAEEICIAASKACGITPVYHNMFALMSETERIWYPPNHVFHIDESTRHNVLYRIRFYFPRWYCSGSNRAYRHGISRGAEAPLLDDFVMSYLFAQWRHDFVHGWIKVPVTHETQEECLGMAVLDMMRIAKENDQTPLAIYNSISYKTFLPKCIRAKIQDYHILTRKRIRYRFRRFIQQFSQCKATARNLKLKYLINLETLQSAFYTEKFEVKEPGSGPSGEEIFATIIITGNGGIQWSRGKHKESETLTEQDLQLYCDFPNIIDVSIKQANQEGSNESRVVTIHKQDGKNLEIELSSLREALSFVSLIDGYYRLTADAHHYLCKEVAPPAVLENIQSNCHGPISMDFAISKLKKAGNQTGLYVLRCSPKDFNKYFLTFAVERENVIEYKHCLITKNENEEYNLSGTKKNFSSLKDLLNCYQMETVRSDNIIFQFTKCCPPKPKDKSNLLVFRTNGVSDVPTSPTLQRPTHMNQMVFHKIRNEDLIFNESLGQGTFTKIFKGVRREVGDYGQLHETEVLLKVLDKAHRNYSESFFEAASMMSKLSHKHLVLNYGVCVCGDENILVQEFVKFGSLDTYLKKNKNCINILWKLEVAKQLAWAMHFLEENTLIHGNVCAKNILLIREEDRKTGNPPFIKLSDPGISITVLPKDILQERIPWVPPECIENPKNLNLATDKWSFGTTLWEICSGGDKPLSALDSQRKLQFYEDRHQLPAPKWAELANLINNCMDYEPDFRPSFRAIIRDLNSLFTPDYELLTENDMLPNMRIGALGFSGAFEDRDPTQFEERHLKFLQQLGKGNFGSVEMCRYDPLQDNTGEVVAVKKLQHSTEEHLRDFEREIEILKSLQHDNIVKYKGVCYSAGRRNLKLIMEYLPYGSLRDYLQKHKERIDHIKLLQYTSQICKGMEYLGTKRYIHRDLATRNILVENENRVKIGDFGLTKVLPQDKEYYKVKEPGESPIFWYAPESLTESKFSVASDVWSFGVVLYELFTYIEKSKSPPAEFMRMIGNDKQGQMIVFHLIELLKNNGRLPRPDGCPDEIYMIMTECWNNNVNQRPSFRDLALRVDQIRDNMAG

| IC50 [1, 3] [nM] | IC50 [2, 4] [nM] | IC50 ([1]; ALK Kinase Inhibition) [nM] | IC50 ([2]; JAK2 Kinase Inhibition) [nM] | Compound |
| --- | --- | --- | --- | --- |
| < 100 | < 100 | – | – | Cc1cc(Nc2ncc3ccc(-c4cccc(S(=O)(=O)NC(C)(C)C)c4)n3n2)ccc1C1CCN(CC(N)=O)CC1 [Example 938, 2-(4-{4-[7-(3-tert-Butylsulfamoyl-phenyl)-pyrrolo[2,1-f][1,2,4]triazin-2-ylamino]-2-methyl-phenyl}-piperidin-1-yl)-acetamide] |
| 1000 to 10000 | < 100 | – | – | CC(C)(C)NS(=O)(=O)c1cccc(-c2ccc3cnc(Nc4ccc5cnn(CCN6CCOCC6)c5c4)nn23)c1 [Example 1324, N-tert-Butyl-3-{2-[1-(2-morpholin-4-yl-ethyl)-1H-indazol-6-ylamino]-pyrrolo[2,1-f][1,2,4]triazin-7-yl}-benzenesulfonamide] |
| – | – | 100 to 1000 | < 100 | CC(C)(C)NS(=O)(=O)c1cccc(-c2ccc3cnc(Nc4cccc(N5CCOCC5)c4)nn23)c1 [Example 1393, N-tert-Butyl-3-[2-(3-morpholin-4-yl-phenylamino)-pyrrolo[2,1-f][1,2,4]triazin-7-yl]-benzenesulfonamide] |
| 1000 to 10000 | < 100 | – | – | Cc1ccncc1-c1ccc2cnc(Nc3ccc(N4CCOCC4)cc3)nn12 [Example 1038, [7-(4-Methyl-pyridin-3-yl)-pyrrolo[2,1-f][1,2,4]triazin-2-yl]-(4-morpholin-4-yl-phenyl)-amine] |
| 100 to 1000 | < 100 | – | – | CS(=O)(=O)c1cccc(-c2ccc3cnc(Nc4ccc(C5CCNCC5)nc4)nn23)c1 [Example 1025, (1′,2′,3′,4′,5′,6′-Hexahydro-[2,4′]bipyridinyl-5-yl)-[7-(3-methanesulfonyl-phenyl)-pyrrolo[2,1-f][1,2,4]triazin-2-yl]-amine] |
| 100 to 1000 | < 100 | – | – | NC(=O)CN1CCC(c2ccc(Nc3ncc4ccc(-c5cccc(S(=O)(=O)N6CCCC6)c5)n4n3)cc2)CC1 [Example 928, 2-[4-(4-{7-[3-(Pyrrolidine-1-sulfonyl)-phenyl]-pyrrolo[2,1-f][1,2,4]triazin-2-ylamino}-phenyl)-piperidin-1-yl]-acetamide] |
| 1000 to 10000 | < 100 | – | – | CN(c1ccccc1-c1ccc2cnc(Nc3cccnc3)nn12)S(C)(=O)=O [Example 1361, N-Methyl-N-{2-[2-(pyridin-3-ylamino)-pyrrolo[2,1-f][1,2,4]triazin-7-yl]-phenyl}-methanesulfonamide] |
| – | – | < 100 | 1000 to 10000 | COc1cc(C2CCN(CC(N)=O)CC2)ccc1Nc1ncc2c(Cl)cc(-c3ccccc3N(C)S(C)(=O)=O)n2n1 [Example 1554, 2-[4-(4-{5-Chloro-7-[2-(methanesulfonyl-methyl-amino)-phenyl]-pyrrolo[2,1-f][1,2,4]triazin-2-ylamino}-3-methoxy-phenyl)-piperidin-1-yl]-acetamide] |
| – | – | < 100 | < 100 | CC(=O)N1CCOc2ccc(Nc3ncc4ccc(-c5cccc(S(=O)(=O)NC(C)(C)C)c5)n4n3)cc21 [Example 1373, 3-[2-(4-Acetyl-3,4-dihydro-2H-benzo[1,4]oxazin-6-ylamino)-pyrrolo[2,1-f][1,2,4]triazin-7-yl]-N-tert-butyl-benzenesulfonamide] |
| < 100 | < 100 | – | – | COc1cc(N2CCC(N3CCOCC3)CC2)ccc1Nc1ncc2ccc(-c3cccc(CCC#N)c3)n2n1 [Example 1159, 3-(3-{2-[2-Methoxy-4-(4-morpholin-4-yl-piperidin-1-yl)-phenylamino]-pyrrolo[2,1-f][1,2,4]triazin-7-yl}-phenyl)-propionitrile] |
| 100 to 1000 | < 100 | – | – | CN1CCN(c2cccc(Nc3ncc4ccc(-c5cnn(CCCO)c5)n4n3)c2)CC1 [Example 976, 3-(4-{2-[3-(4-Methyl-piperazin-1-yl)-phenylamino]-pyrrolo[2,1-f][1,2,4]triazin-7-yl}-pyrazol-1-yl)-propan-1-ol] |
| < 100 | 1000 to 10000 | – | – | COc1cc(CN2CCN(C)CC2)ccc1Nc1ncc2ccc(-c3ccccc3N(C)S(C)(=O)=O)n2n1 [Example 1251, N-(2-{2-[2-Methoxy-4-(4-methyl-piperazin-1-ylmethyl)-phenylamino]-pyrrolo[2,1-f][1,2,4]triazin-7-yl}-phenyl)-N-methyl-methanesulfonamide] |
| < 100 | 1000 to 10000 | – | – | COc1cc(C2CCN(CC(N)=O)CC2)ccc1Nc1ncc2ccc(-c3cn(C)nc3N(C)S(C)(=O)=O)n2n1 [Example 1256, 2-[4-(4-{7-[3-(Methanesulfonyl-methyl-amino)-1-methyl-1H-pyrazol-4-yl]-pyrrolo[2,1-f][1,2,4]triazin-2-ylamino}-3-methoxy-phenyl)-piperidin-1-yl]-acetamide] |
| – | – | < 100 | < 100 | COc1cc(N2CCC(N3CCOCC3)CC2)ccc1Nc1ncc2ccc(-c3ccccc3N(CCF)S(C)(=O)=O)n2n1 [Example 1463, N-(2-Fluoro-ethyl)-N-(2-{2-[2-methoxy-4-(4-morpholin-4-yl-piperidin-1-yl)-phenylamino]-pyrrolo[2,1-f][1,2,4]triazin-7-yl}-phenyl)-methanesulfonamide] |

More lines, now with the values behind:

| Compound | IC50 [1, 3] [nM] | IC50 [2, 4] [nM] | IC50 ([1]; ALK Kinase Inhibition) [nM] | IC50 ([2]; JAK2 Kinase Inhibition) [nM] |
| --- | --- | --- | --- | --- |
| CC(C)(C)NS(=O)(=O)c1cccc(-c2ccc3cnc(Nc4ccc(C5CN(CC(N)=O)C5)cc4)nn23)c1 [Example 577, 2-(3-{4-[7-(3-tert-Butylsulfamoyl-phenyl)-pyrrolo[2,1-f][1,2,4]triazin-2-ylamino]-phenyl}-azetidin-1-yl)-acetamide] | 100 to 1000 | < 100 | – | – |
| COc1cc(N2CCC(N3CCCN(CCO)CC3)CC2)ccc1Nc1ncc2ccc(-c3ccccc3N(C)S(C)(=O)=O)n2n1 [Example 803, N-{2-[2-(4-{4-[4-(2-Hydroxy-ethyl)-[1,4]diazepan-1-yl]-piperidin-1-yl}-2-methoxy-phenylamino)-pyrrolo[2,1-f][1,2,4]triazin-7-yl]-phenyl}-N-methyl-methanesulfonamide] | < 100 | 100 to 1000 | – | – |
| CN(c1ccccc1-c1ccc2cnc(Nc3ccc4c(c3)CCC(N3CCOCC3)CC4)nn12)S(C)(=O)=O (stereo not drawn) [Example 615, N-Methyl-N-{2-[2-(7-morpholin-4-yl-6,7,8,9-tetrahydro-5H-benzocyclohepten-2-ylamino)-pyrrolo[2,1-f][1,2,4]triazin-7-yl]-phenyl}-methanesulfonamide] | < 100 | < 100 | – | – |
| COCCN1CCc2ccc(Nc3ncc4ccc(-c5ccc(S(C)(=O)=O)cc5)n4n3)cc2CC1 [Example 89, [7-(4-Methanesulfonyl-phenyl)-pyrrolo[2,1-f][1,2,4]triazin-2-yl]-[3-(2-methoxy-ethyl)-2,3,4,5-tetrahydro-1H-benzo[d]azepin-7-yl]-amine] | – | – | 100 to 1000 | < 100 |
| CCS(=O)(=O)Nc1cccc(-c2ccc3cnc(Nc4ccc(N5CCOCC5)cc4)nn23)c1 [Example 416, Ethanesulfonic acid {3-[2-(4-morpholin-4-yl-phenylamino)-pyrrolo[2,1-f][1,2,4]triazin-7-yl]-phenyl}-amide] | – | – | 100 to 1000 | < 100 |
| CN1CCN(c2ccc(Nc3ncc4ccc(Sc5ccccc5)n4n3)cc2)CC1 [Example 78, [4-(4-Methyl-piperazin-1-yl)-phenyl]-(7-phenylsulfanyl-pyrrolo[2,1-f][1,2,4]triazin-2-yl)-amine] | – | – | < 100 | < 100 |
| COc1ccccc1-c1ccc2cnc(Nc3ccc(C4CCN(CC(N)=O)CC4)c(OC)c3)nn12 [Example 912, 2-(4-{2-Methoxy-4-[7-(2-methoxy-phenyl)-pyrrolo[2,1-f][1,2,4]triazin-2-ylamino]-phenyl}-piperidin-1-yl)-acetamide] | < 100 | < 100 | – | – |
| Cn1cc(-c2ccc3cnc(Nc4ccc(C5CN(CC(N)=O)C5)cc4)nn23)cn1 [Example 585, 2-(3-{4-[7-(1-Methyl-1H-pyrazol-4-yl)-pyrrolo[2,1-f][1,2,4]triazin-2-ylamino]-phenyl}-azetidin-1-yl)-acetamide] | 100 to 1000 | < 100 | – | – |
| COc1cc(Nc2ncc3ccc(-c4ccccc4N(C)S(C)(=O)=O)n3n2)ccc1C1CCN(CC(N)=O)CC1 [Example 914, 2-[4-(4-{7-[2-(Methanesulfonyl-methyl-amino)-phenyl]-pyrrolo[2,1-f][1,2,4]triazin-2-ylamino}-2-methoxy-phenyl)-piperidin-1-yl]-acetamide] | < 100 | < 100 | – | – |
| CC(=O)Nc1cc(Nc2ncc3ccc(-c4cccc(S(=O)(=O)NC(C)(C)C)c4)n3n2)ccc1Cl [Example 888, N-{5-[7-(3-tert-Butylsulfamoyl-phenyl)-pyrrolo[2,1-f][1,2,4]triazin-2-ylamino]-2-chloro-phenyl}-acetamide] | 100 to 1000 | < 100 | – | – |
| {6-[7-(3-tert-Butylsulfamoyl-phenyl)-pyrrolo[2,1-f][1,2,4]triazin-2-yl amino]-2-hydroxy-indan-1-yl}-carbamic acid tert-butyl ester [Example 672] | 100 to 1000 | < 100 | – | – |
| COc1ccccc1-c1ccc2cnc(Nc3ccc(N4CCCC(N5CCOCC5)C4)cc3)nn12 (stereo not drawn) [Example 343, [7-(2-Methoxy-phenyl)-pyrrolo[2,1-f][1,2,4]triazin-2-yl]-[4-(3-morpholin-4-yl-piperidin-1-yl)-phenyl]-amine] | – | – | < 100 | < 100 |
| COc1ccc(-c2ccc3cnc(Nc4ccc(C5CCN(CCO)CC5)cc4)nn23)cn1 [Example 671, 2-(4-{4-[7-(6-Methoxy-pyridin-3-yl)-pyrrolo[2,1-f][1,2,4]triazin-2-ylamino]-phenyl}-piperidin-1-yl)-ethanol] | 100 to 1000 | < 100 | – | – |
